# Source: US20250084080A1, “CRYSTALLINE AND SALT FORMS OF AN NLRP3 INHIBITOR” (BioAge Labs, Inc., priority 2023, published 2025)
# Assays:
# Format in all cases: physicochemical
# [1] = Solubility at 37° C. in buffers and biorelevant media, XRPD of residual solid; conditions: for solubility at 2 h / solubility at 24 h: thermodynamic from solid
# Procedure: Solubility of BAL-0748 free form Pattern B was investigated in pH 1.2 HCl buffer, pH 4.5 50 mM acetate buffer, pH 6.8 50 mM phosphate buffer, water, pH 1.6 FaSSGF, pH 6.5 FaSSIF-v1, pH 5.0 FeSSIF-v1 and 2% HPMC+1% Pluronic F68 in pH 4.5 50 mM acetate buffer at 37° C. for 2 h and 24 h. Residual solids after the solubility test were analyzed by XRPD.
# Solubility of the free form Pattern A, the HCl salt Pattern A, the phosphate salt Pattern A, and the sodium salt Pattern A was measured in pH 1.2 HCl buffer, pH 4.5 acetate buffer (50 mM), pH 6.8 phosphate buffer (50 mM), water, pH 1.6 FaSSGF, pH 6.5 FaSSIF-v1, pH 5.0 FeSSIF-v1, and 2% HPMC+1% Pluronic F68 in pH 4.5 acetate buffer (50 mM) at 37° C. for 2 hours and 24 hours.
# 10.4 mg of the free form Pattern A, 10.0 mg of the free form Pattern B, 10.8 mg of the HCl salt Pattern A, 12.2 mg of the phosphate salt Pattern A, or 10.5 mg of the sodium salt Pattern A was weighed into a 20 mL glass vial, respectively. 5 mL of solubility medium was added. The salt amount used was equivalent to 10 mg anhydrous free form. Obtained suspensions were stirred at 37° C. at 400 rpm and sampled at 2 hours and at 24 hours. The samples were centrifuged at 37° C. at 14,000 rpm for 5 min. Supernatants were analyzed by HPLC and PH meter for solubility and pH value, respectively. Residual solids (wet cakes) from the 24 hours samples were also characterized by XRPD to determine physical form.
# [2] = Hygroscopicity by dynamic vapor sorption (DVS) at 25° C.; conditions: for Desorp. (%) / Sorp. (%): DVS 25° C.
# Procedure: Dynamic vapor sorption (DVS) was performed on an Intrinsic, Advantage or Adventure with an oven temperature of 25° C. using water as a solvent. The sample mass was about 5-10 mg using the following method: • Cycle: 40-0-95-0-40% RH • Stage Step: 10% • Equilibrium: 0.002 dm/dt (%/min) • Minimum dm/dt stability duration: 60 min • Maximum dm/dt stage time: 360 min. Hygroscopicity of free form Pattern B was evaluated by dynamic vapor sorption (DVS) test at 25° C. […] It absorbed about 0.8% water at 80% RH at 25° C.
# [3] = Bulk stability (solid state, 1 week; HPLC, XRPD, IC, color); set-up: key to CL (color): A: no change of color; B: slight discoloration; C: medium discoloration; D: strong discoloration; conditions: for Bulk (HPLC) Purity / Bulk (XRPD) / CL (color) / Stoichiometry by IC (Free form:HCl = 1:x): Solid state
# Procedure: Bulk stability of free form Pattern B was evaluated at 25° C./92.5% RH in an open container, at 40° C./75% RH in an open container and at 60° C. in a tight container over 1 week.
# [4] = aqueous buffer, pH 4.5 acetate buffer (50 mM), 37° C.
# [5] = aqueous buffer, pH 6.8 phosphate buffer (50 mM), 37° C.
# [6] = aqueous with cosolvent or surfactant or cyclodextrin, 2% HPMC + 1% Pluronic F68 in pH 4.5 acetate buffer (50 mM), 37° C.
# [7] = fassgf or other biorelevant, FaSSGF, pH 1.6, 37° C.
# [8] = simulated gastric fluid, pH 1.2 HCl buffer, 37° C.
# [9] = 25° C./92.5% RH open, 40° C./75% RH open, 60° C. tight container
compound,measurement,setting,value
"CCOc1cc(C(=O)N(C)Cc2cnc(CO)c3cn[nH]c23)ccc1-c1cc(F)cc(F)c1.Cl [HCl salt Pattern A, 2-ethoxy-3′,5′-difluoro-N-((4-(hydroxymethyl)-1H-pyrazolo[4,3-c]pyridin-7-yl)methyl)-N-methyl-[1,1′-biphenyl]-4-carboxamide hydrochloric acid salt]",pH of supernatant at 24 h,"[1]; 2% HPMC + 1% Pluronic F68 in pH 4.5 acetate buffer (50 mM), 37° C.",(4.4)
same,Solubility compared with the free form Pattern A,[1]; 2% HPMC+1% Pluronic F68 in acetate buffer (pH 4.5),comparable solubility
same,pH of supernatant at 24 h,"[1]; FaSSGF, pH 1.6, 37° C.",(1.5)
same,pH of supernatant at 24 h,"[1]; FaSSIF-v1, pH 6.5, 37° C.",(6.3)
same,pH of supernatant at 24 h,"[1]; FeSSIF-v1, pH 5.0, 37° C.",(4.9)
same,pH of supernatant at 24 h,"[1]; Water, 37° C.",(2.5)
same,solubility at 2 h,[1]; [4],14.4 µg/mL
same,solubility at 24 h,[1]; [4],10 µg/mL
same,solubility at 2 h,[1]; [5],3.3 µg/mL
same,solubility at 24 h,[1]; [5],2.3 µg/mL
same,solubility at 2 h,[1]; [6],29.5 µg/mL
same,solubility at 24 h,[1]; [6],26.7 µg/mL
same,solubility at 2 h,[1]; [7],556 µg/mL
same,solubility at 24 h,[1]; [7],522 µg/mL
same,pH of supernatant at 24 h,"[1]; pH 1.2 HCl buffer, 37° C.",(1.2)
same,pH of supernatant at 24 h,"[1]; pH 4.5 acetate buffer (50 mM), 37° C.",(4.3)
same,Higher solubility compared with the free form Pattern A,"[1]; pH 5.0 FeSSIF-v1, 2 h",1 fold
same,pH of supernatant at 24 h,"[1]; pH 6.8 phosphate buffer (50 mM), 37° C.",(6.7)
same,Solubility compared with the free form Pattern A,[1]; pure water,obviously higher solubility
same,solubility at 2 h,[1]; [8],362 µg/mL
same,solubility at 24 h,[1]; [8],277 µg/mL
same,solubility at 2 h,"[1]; FaSSIF-v1, pH 6.5, 37° C.",11.8 µg/mL
same,solubility at 24 h,"[1]; FaSSIF-v1, pH 6.5, 37° C.",8.4 µg/mL
same,solubility at 2 h,"[1]; FeSSIF-v1, pH 5.0, 37° C.",238 µg/mL
same,solubility at 24 h,"[1]; FeSSIF-v1, pH 5.0, 37° C.",151 µg/mL
same,solubility at 2 h,"[1]; Water, 37° C.",568 µg/mL
same,solubility at 24 h,"[1]; Water, 37° C.",504 µg/mL
same,Desorp. (%),"[2]; 0% RH, 1st desorption",0.51%
same,Sorp. (%),"[2]; 0% RH, 1st sorption",0.51%
same,Desorp. (%),"[2]; 0% RH, 2nd desorption",0.15%
same,Sorp. (%),"[2]; 0% RH, 2nd sorption",0.15%
same,Desorp. (%),"[2]; 10% RH, 1st desorption",0.61%
same,Sorp. (%),"[2]; 10% RH, 1st sorption",0.61%
same,Desorp. (%),"[2]; 10% RH, 2nd desorption",0.24%
same,Sorp. (%),"[2]; 10% RH, 2nd sorption",0.20%
same,Desorp. (%),"[2]; 20% RH, 1st desorption",0.65%
same,Sorp. (%),"[2]; 20% RH, 1st sorption",0.68%
same,Desorp. (%),"[2]; 20% RH, 2nd desorption",0.28%
same,Sorp. (%),"[2]; 20% RH, 2nd sorption",0.24%
same,Desorp. (%),"[2]; 30% RH, 1st desorption",0.69%
same,Sorp. (%),"[2]; 30% RH, 1st sorption",0.78%
same,Desorp. (%),"[2]; 30% RH, 2nd desorption",0.35%
same,Sorp. (%),"[2]; 30% RH, 2nd sorption",0.27%
same,Desorp. (%),"[2]; 40% RH, 1st desorption",0.72%
same,Sorp. (%),"[2]; 40% RH, 1st sorption",0.75%
same,Desorp. (%),"[2]; 40% RH, 2nd desorption",0.42%
same,Sorp. (%),"[2]; 40% RH, 2nd sorption",0.29%
same,Sorp. (%),"[2]; 50% RH, 1st sorption",0.80%
same,Desorp. (%),"[2]; 50% RH, 2nd desorption",0.54%
same,Sorp. (%),"[2]; 60% RH, 1st sorption",0.85%
same,Desorp. (%),"[2]; 60% RH, 2nd desorption",0.68%
same,Sorp. (%),"[2]; 70% RH, 1st sorption",0.96%
same,Desorp. (%),"[2]; 70% RH, 2nd desorption",0.84%
same,Sorp. (%),"[2]; 80% RH, 1st sorption",1.00%
same,Desorp. (%),"[2]; 80% RH, 2nd desorption",1.07%
same,Sorp. (%),"[2]; 90% RH, 1st sorption",1.37%
same,Desorp. (%),"[2]; 90% RH, 2nd desorption",1.54%
same,Sorp. (%),"[2]; 95% RH, 1st sorption",2.20%
same,Desorp. (%),"[2]; 95% RH, 2nd desorption",2.20%
same,XRPD after DVS test,[2]; DVS at 25° C.,No form change
same,Water absorbed at 80% RH,"[2]; DVS at 25° C., 80% RH",It absorbed 1.0%
same,"Bulk stability, chemical and physical",[3]; [9],chemically and physically stable
same,Degradation by HPLC,[3]; [9],no obvious degradation
same,Form change by XRPD,[3]; [9],no form change
same,Bulk (HPLC) Purity,"[3]; 25° C./92.5% RH, open",99.1%
same,Bulk (XRPD),"[3]; 25° C./92.5% RH, open",No form change
same,CL (color),"[3]; 25° C./92.5% RH, open",A
same,Stoichiometry by IC (Free form:HCl = 1:x),"[3]; 25° C./92.5% RH, open",0.97
same,Bulk (HPLC) Purity,"[3]; 40° C./75% RH, open",98.9%
same,Bulk (XRPD),"[3]; 40° C./75% RH, open",No form change
same,CL (color),"[3]; 40° C./75% RH, open",A
same,Stoichiometry by IC (Free form:HCl = 1:x),"[3]; 40° C./75% RH, open",0.99
same,Bulk (HPLC) Purity,"[3]; 60° C., closed",98.9%
same,Bulk (XRPD),"[3]; 60° C., closed",No form change
same,CL (color),"[3]; 60° C., closed",A
same,Stoichiometry by IC (Free form:HCl = 1:x),"[3]; 60° C., closed",0.97
